In patent publication US8192962B2, “Processes for detecting toxic substances” (Daikin Industries, Ltd., priority 2001, dated 2012):

Test system: Metabolism protein genes
Test: DNA chip mRNA expression in yeast, metabolism protein genes (Table 7)
Assay type: cell-based, Saccharomyces cerevisiae S288C
In short: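 Value is the scanned fluorescence intensity ratio of exposed versus chemical-free cells. Log-phase S288C yeast in YPD at 25° C. received one toxic substance for two hours, dosed to slow growth without killing; Cy3/Cy5-labeled cDNA from oligo-dT-purified mRNA was hybridized to a whole-genome chip at 65° C.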

## COc1cc(CNC(=O)CCCCC=CC(C)C)ccc1O [(12), 8-methyl-N-vanillyl-6-nonenamide]
Yeast gene YAL012W
  The level of expressed mRNA in the presence of chemical substance/The level of expressed mRNA in the absence of chemical substance: 1.1
Yeast gene YAL038W
  The level of expressed mRNA in the presence of chemical substance/The level of expressed mRNA in the absence of chemical substance: 1.2
Yeast gene YBR003W
  level of expressed mRNA in the presence/in the absence of chemical substance: 0.8
Yeast gene YBR011C
  level of expressed mRNA in the presence/in the absence of chemical substance: 1.1
Yeast gene YBR020W
  level of expressed mRNA in the presence/in the absence of chemical substance: 0.8
Yeast gene YBR023C
  The level of expressed mRNA in the presence of chemical substance/The level of expressed mRNA in the absence of chemical substance: 0.8
Yeast gene YBR029C
  The level of expressed mRNA in the presence of chemical substance/The level of expressed mRNA in the absence of chemical substance: 1.3
Yeast gene YBR183W
  The level of expressed mRNA in the presence of chemical substance/The level of expressed mRNA in the absence of chemical substance: 1.2
Yeast gene YBR222C
  The level of expressed mRNA in the presence of chemical substance/The level of expressed mRNA in the absence of chemical substance: 0.9
Yeast gene YBR256C
  The level of expressed mRNA in the presence of chemical substance/The level of expressed mRNA in the absence of chemical substance: 1.7
Yeast gene YCL009C
  The level of expressed mRNA in the presence of chemical substance/The level of expressed mRNA in the absence of chemical substance: 1.7
Yeast gene YCL018W
  The level of expressed mRNA in the presence of chemical substance/The level of expressed mRNA in the absence of chemical substance: 1.6
Yeast gene YCL064C
  The level of expressed mRNA in the presence of chemical substance/The level of expressed mRNA in the absence of chemical substance: 0.7
Yeast gene YCR010C
  level of expressed mRNA in the presence/in the absence of chemical substance: 0.8
Yeast gene YCR034W
  level of expressed mRNA in the presence/in the absence of chemical substance: 0.5
Yeast gene YCR048W
  The level of expressed mRNA in the presence of chemical substance/The level of expressed mRNA in the absence of chemical substance: 0.9
Yeast gene YCR098C
  The level of expressed mRNA in the presence of chemical substance/The level of expressed mRNA in the absence of chemical substance: 1.3
Yeast gene YDL174C
  The level of expressed mRNA in the presence of chemical substance/The level of expressed mRNA in the absence of chemical substance: 2.8
Yeast gene YDR019C
  The level of expressed mRNA in the presence of chemical substance/The level of expressed mRNA in the absence of chemical substance: 0.7
Yeast gene YDR050C
  level of expressed mRNA in the presence/in the absence of chemical substance: 1.4
Yeast gene YDR073W
  level of expressed mRNA in the presence/in the absence of chemical substance: 0.8
Yeast gene YDR123C
  level of expressed mRNA in the presence/in the absence of chemical substance: 0.5
Yeast gene YDR178W
  level of expressed mRNA in the presence/in the absence of chemical substance: 1.3
Yeast gene YDR277C
  level of expressed mRNA in the presence/in the absence of chemical substance: 0.9
Yeast gene YDR284C
  level of expressed mRNA in the presence/in the absence of chemical substance: 0.9
Yeast gene YDR345C
  level of expressed mRNA in the presence/in the absence of chemical substance: 1.4
Yeast gene YDR380W
  The level of expressed mRNA in the presence of chemical substance/The level of expressed mRNA in the absence of chemical substance: 0.4
Yeast gene YDR400W
  level of expressed mRNA in the presence/in the absence of chemical substance: 0.4
Yeast gene YDR408C
  level of expressed mRNA in the presence/in the absence of chemical substance: 0.6
Yeast gene YDR483W
  level of expressed mRNA in the presence/in the absence of chemical substance: 0.8
Yeast gene YDR497C
  The level of expressed mRNA in the presence of chemical substance/The level of expressed mRNA in the absence of chemical substance: 0.9
Yeast gene YDR502C
  The level of expressed mRNA in the presence of chemical substance/The level of expressed mRNA in the absence of chemical substance: 1.3
Yeast gene YDR516C
  The level of expressed mRNA in the presence of chemical substance/The level of expressed mRNA in the absence of chemical substance: 1.1
Yeast gene YEL063C
  level of expressed mRNA in the presence/in the absence of chemical substance: 1.1
Yeast gene YER015W
  level of expressed mRNA in the presence/in the absence of chemical substance: 0.9
Yeast gene YER026C
  The level of expressed mRNA in the presence of chemical substance/The level of expressed mRNA in the absence of chemical substance: 1.7
Yeast gene YER053C
  The level of expressed mRNA in the presence of chemical substance/The level of expressed mRNA in the absence of chemical substance: 1.7
Yeast gene YER069W
  The level of expressed mRNA in the presence of chemical substance/The level of expressed mRNA in the absence of chemical substance: 0.8
Yeast gene YER081W
  level of expressed mRNA in the presence/in the absence of chemical substance: 1.0
Yeast gene YER096W
  The level of expressed mRNA in the presence of chemical substance/The level of expressed mRNA in the absence of chemical substance: 0.9
Yeast gene YER120W
  level of expressed mRNA in the presence/in the absence of chemical substance: 1.3
Yeast gene YER178W
  The level of expressed mRNA in the presence of chemical substance/The level of expressed mRNA in the absence of chemical substance: 1.3
Yeast gene YFL011W
  level of expressed mRNA in the presence/in the absence of chemical substance: 0.9
Yeast gene YFL014W
  The level of expressed mRNA in the presence of chemical substance/The level of expressed mRNA in the absence of chemical substance: 4.3
Yeast gene YFL030W
  The level of expressed mRNA in the presence of chemical substance/The level of expressed mRNA in the absence of chemical substance: 1.2
Yeast gene YFL031W
  The level of expressed mRNA in the presence of chemical substance/The level of expressed mRNA in the absence of chemical substance: 1.0
Yeast gene YFL056C
  The level of expressed mRNA in the presence of chemical substance/The level of expressed mRNA in the absence of chemical substance: 1.0
Yeast gene YFL057C
  The level of expressed mRNA in the presence of chemical substance/The level of expressed mRNA in the absence of chemical substance: 1.0
Yeast gene YFR047C
  The level of expressed mRNA in the presence of chemical substance/The level of expressed mRNA in the absence of chemical substance: 1.7
Yeast gene YGL012W
  level of expressed mRNA in the presence/in the absence of chemical substance: 0.6
Yeast gene YGL022W
  The level of expressed mRNA in the presence of chemical substance/The level of expressed mRNA in the absence of chemical substance: 0.7
Yeast gene YGL115W
  level of expressed mRNA in the presence/in the absence of chemical substance: 0.9
Yeast gene YGL126W
  The level of expressed mRNA in the presence of chemical substance/The level of expressed mRNA in the absence of chemical substance: 0.6
Yeast gene YGL205W
  level of expressed mRNA in the presence/in the absence of chemical substance: 1.1
Yeast gene YGL209W
  The level of expressed mRNA in the presence of chemical substance/The level of expressed mRNA in the absence of chemical substance: 1.3
Yeast gene YGL248W
  The level of expressed mRNA in the presence of chemical substance/The level of expressed mRNA in the absence of chemical substance: 0.8
Yeast gene YGR037C
  The level of expressed mRNA in the presence of chemical substance/The level of expressed mRNA in the absence of chemical substance: 1.5
Yeast gene YGR055W
  The level of expressed mRNA in the presence of chemical substance/The level of expressed mRNA in the absence of chemical substance: 0.9
Yeast gene YGR096W
  level of expressed mRNA in the presence/in the absence of chemical substance: 0.8
Yeast gene YGR191W
  level of expressed mRNA in the presence/in the absence of chemical substance: 0.7
Yeast gene YGR194C
  The level of expressed mRNA in the presence of chemical substance/The level of expressed mRNA in the absence of chemical substance: 0.8
Yeast gene YGR204W
  level of expressed mRNA in the presence/in the absence of chemical substance: 1.0
Yeast gene YGR244C
  The level of expressed mRNA in the presence of chemical substance/The level of expressed mRNA in the absence of chemical substance: 1.9
Yeast gene YGR256W
  The level of expressed mRNA in the presence of chemical substance/The level of expressed mRNA in the absence of chemical substance: 1.5
Yeast gene YGR282C
  The level of expressed mRNA in the presence of chemical substance/The level of expressed mRNA in the absence of chemical substance: 1.3
Yeast gene YGR288W
  level of expressed mRNA in the presence/in the absence of chemical substance: 0.9
Yeast gene YHR025W
  level of expressed mRNA in the presence/in the absence of chemical substance: 0.9
Yeast gene YHR111W
  The level of expressed mRNA in the presence of chemical substance/The level of expressed mRNA in the absence of chemical substance: 0.9
Yeast gene YHR123W
  level of expressed mRNA in the presence/in the absence of chemical substance: 0.7
Yeast gene YHR137W
  The level of expressed mRNA in the presence of chemical substance/The level of expressed mRNA in the absence of chemical substance: 0.6
Yeast gene YHR174W
  The level of expressed mRNA in the presence of chemical substance/The level of expressed mRNA in the absence of chemical substance: 1.5
Yeast gene YHR176W
  The level of expressed mRNA in the presence of chemical substance/The level of expressed mRNA in the absence of chemical substance: 1.2
Yeast gene YHR210C
  level of expressed mRNA in the presence/in the absence of chemical substance: 0.5
Yeast gene YIL006W
  level of expressed mRNA in the presence/in the absence of chemical substance: 0.9
Yeast gene YIL045W
  The level of expressed mRNA in the presence of chemical substance/The level of expressed mRNA in the absence of chemical substance: 1.5
Yeast gene YIL107C
  The level of expressed mRNA in the presence of chemical substance/The level of expressed mRNA in the absence of chemical substance: 1.1
Yeast gene YIL154C
  The level of expressed mRNA in the presence of chemical substance/The level of expressed mRNA in the absence of chemical substance: 1.1
Yeast gene YIL155C
  The level of expressed mRNA in the presence of chemical substance/The level of expressed mRNA in the absence of chemical substance: 1.4
Yeast gene YIL167W
  The level of expressed mRNA in the presence of chemical substance/The level of expressed mRNA in the absence of chemical substance: 0.7
Yeast gene YIR034C
  The level of expressed mRNA in the presence of chemical substance/The level of expressed mRNA in the absence of chemical substance: 1.4
Yeast gene YIR036C
  The level of expressed mRNA in the presence of chemical substance/The level of expressed mRNA in the absence of chemical substance: 1.2
Yeast gene YJL031C
  The level of expressed mRNA in the presence of chemical substance/The level of expressed mRNA in the absence of chemical substance: 1.3
Yeast gene YJL068C
  The level of expressed mRNA in the presence of chemical substance/The level of expressed mRNA in the absence of chemical substance: 1.7
Yeast gene YJL088W
  The level of expressed mRNA in the presence of chemical substance/The level of expressed mRNA in the absence of chemical substance: 0.7
Yeast gene YJL099W
  The level of expressed mRNA in the presence of chemical substance/The level of expressed mRNA in the absence of chemical substance: 1.0
Yeast gene YJL121C
  level of expressed mRNA in the presence/in the absence of chemical substance: 0.6
Yeast gene YJL167W
  level of expressed mRNA in the presence/in the absence of chemical substance: 1.3
Yeast gene YJL172W
  The level of expressed mRNA in the presence of chemical substance/The level of expressed mRNA in the absence of chemical substance: 1.1
Yeast gene YJL216C
  level of expressed mRNA in the presence/in the absence of chemical substance: 1.0
Yeast gene YJL219W
  The level of expressed mRNA in the presence of chemical substance/The level of expressed mRNA in the absence of chemical substance: 1.1
Yeast gene YJR077C
  level of expressed mRNA in the presence/in the absence of chemical substance: 1.0
Yeast gene YJR137C
  The level of expressed mRNA in the presence of chemical substance/The level of expressed mRNA in the absence of chemical substance: 1.4
